Experimental data from US20240317708A1, “INHIBITORS OF TRANSGLUTAMINASES” (ZEDIRA GMBH, priority 2021, published 2024).

What was measured:
[1] = Caco-2 permeability assay (CacoReady kit); assay type: in vitro ADME; settings: human
Summary of the method: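 Read-out is the permeability coefficient Papp, obtained from transport across a Caco-2 barrier prepared from a ready-to-use kit following the manufacturer's instructions.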

[2] = Log D shake flask method (octanol / PBS pH 7.4, HPLC); assay type: physicochemical; settings: octanol/phosphate-buffered saline (PBS); octanol / PBS pH 7.4, shake flask
Experimental: In order to classify the inventive compounds according to their lipophilicity, Log D values (distribution coefficient) were determined by means of the well-established shake flask method, measuring the partition of a compound between an octanol and phosphate-buffered saline (PBS, pH 7.4) by HPLC.

[3] = biological target: T1, recombinant human transglutaminase 2 (Homo sapiens, UniProt P21980); test: Transglutaminase assay (dansylcadaverine incorporation into dimethylcasein, DCC-assay); assay type: biochemical; settings: recombinant human TG2 10 nM, dansylcadaverine/dimethylcasein, 37° C.
T1 construct: purchased Zedira T022
T1 sequence (P21980 1-687): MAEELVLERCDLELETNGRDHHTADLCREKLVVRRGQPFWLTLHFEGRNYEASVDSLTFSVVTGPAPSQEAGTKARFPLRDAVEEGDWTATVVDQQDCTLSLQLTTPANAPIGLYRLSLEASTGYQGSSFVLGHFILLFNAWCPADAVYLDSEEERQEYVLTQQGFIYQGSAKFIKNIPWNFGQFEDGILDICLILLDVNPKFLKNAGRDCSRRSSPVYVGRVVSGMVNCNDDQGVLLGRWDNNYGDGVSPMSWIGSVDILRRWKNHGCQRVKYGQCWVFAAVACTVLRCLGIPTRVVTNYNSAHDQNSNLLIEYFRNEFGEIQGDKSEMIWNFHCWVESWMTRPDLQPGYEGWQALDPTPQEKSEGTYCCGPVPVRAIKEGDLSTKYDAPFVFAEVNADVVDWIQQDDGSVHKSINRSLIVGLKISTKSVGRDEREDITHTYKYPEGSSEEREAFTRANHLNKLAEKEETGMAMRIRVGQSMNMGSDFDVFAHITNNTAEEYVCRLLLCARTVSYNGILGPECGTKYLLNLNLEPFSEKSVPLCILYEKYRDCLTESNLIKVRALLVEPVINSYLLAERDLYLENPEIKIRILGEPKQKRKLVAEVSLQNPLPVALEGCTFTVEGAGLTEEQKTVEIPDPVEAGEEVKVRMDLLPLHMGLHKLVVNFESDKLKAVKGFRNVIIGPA
Summary of the method: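 IC50 derived from fluorescence slope between 20 and 30 min (λex 330 nm, λem 500 nm, 37 °C), expressed relative to a 2% DMSO control. Reaction: 10 nM recombinant human TG2, 4 μM dimethylcasein, 16.7 μM dansylcadaverine, 10 mM CaCl2 and glutathione, pH 8.0.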

| Structure (SMILES) | Papp [1] [×10⁻⁶ cm/s] | logD [2] | IC50 [3] [nM] |
| --- | --- | --- | --- |
| O=C(/C=C/CC[C@H](NC(=O)c1cnc2ccc(OC(F)(F)F)cc2c1O)C(=O)Nc1cccn(CC(=O)NC23CC(C2)C3)c1=O)NC1CC1 [III-144, (S,E)-N7-(1-(2-(bicyclo[1.1.1]pentan-1-ylamino)-2-oxoethyl)-2-oxo-1,2-dihydropyridin-3-yl)-N1-cyclopropyl-6-(4-hydroxy-6-(trifluoromethoxy)quinoline-3-carboxamido)hept-2-enediamide] | < 1 | 3 to 5 | 250 to 1500 |
| Cc1nc2ncccc2cc1C(=O)N[C@@H](CC/C=C/C(=O)NC1CCCC1)C(=O)Nc1cccn(CC(=O)NC23CC(C2)C3)c1=O [III-146, (S,E)-N7-(1-(2-(bicyclo[1.1.1]pentan-1-ylamino)-2-oxoethyl)-2-oxo-1,2-dihydropyridin-3-yl)-N1-cyclopentyl-6-(2-methyl-1,8-naphthyridine-3-carboxamido)hept-2-enediamide] | < 1 | < 1 | 250 to 1500 |
| CCc1c(C(=O)N[C@@H](CC/C=C/C(=O)NC2CCCC2)C(=O)Nc2cccn(CC(=O)NC34CC(C3)C4)c2=O)oc2ccccc12 [III-147, (S,E)-N7-(1-(2-(bicyclo[1.1.1]pentan-1-ylamino)-2-oxoethyl)-2-oxo-1,2-dihydropyridin-3-yl)-N1-cyclopentyl-6-(3-ethylbenzofuran-2-carboxamido)hept-2-enediamide] | 1 to 10 | 1 to 3 | 25 to 250 |
| CCn1c(C(=O)N[C@@H](CC/C=C/C(=O)NC2CCCCC2)C(=O)Nc2cccn(CC(=O)NC34CC(C3)C4)c2=O)cc2ccccc21 [III-148, (S,E)-N7-(1-(2-(bicyclo[1.1.1]pentan-1-ylamino)-2-oxoethyl)-2-oxo-1,2-dihydropyridin-3-yl)-N1-cyclohexyl-6-(1-ethyl-1H-indole-2-carboxamido)hept-2-enediamide] | 1 to 10 | 3 to 5 | 25 to 250 |
| O=C(/C=C/CC[C@H](NC(=O)c1ccc2c(c1)NCCC2)C(=O)Nc1cccn(CC(=O)NC23CC(C2)C3)c1=O)NC1CCCCC1 [III-149, (S,E)-N7-(1-(2-(bicyclo[1.1.1]pentan-1-ylamino)-2-oxoethyl)-2-oxo-1,2-dihydropyridin-3-yl)-N1-cyclohexyl-6-(1,2,3,4-tetrahydroquinoline-7-carboxamido)hept-2-enediamide] | < 1 | 1 to 3 | 250 to 1500 |
| Cc1oc(Br)cc1C(=O)N[C@@H](CC/C=C/C(=O)Nc1ccccc1)C(=O)Nc1cccn(CC(=O)NC23CC(C2)C3)c1=O [III-152, (S,E)-N7-(1-(2-(bicyclo[1.1.1]pentan-1-ylamino)-2-oxoethyl)-2-oxo-1,2-dihydropyridin-3-yl)-6-(5-bromo-2-methylfuran-3-carboxamido)-N1-phenylhept-2-enediamide] | 1 to 10 | 1 to 3 | 25 to 250 |
| O=C(/C=C/CC[C@H](NC(=O)c1nc(Cl)sc1Cl)C(=O)Nc1cccn(CC(=O)NC23CC(C2)C3)c1=O)NCc1ccccc1 [III-154, (S,E)-N1-benzyl-N7-(1-(2-(bicyclo[1.1.1]pentan-1-ylamino)-2-oxoethyl)-2-oxo-1,2-dihydropyridin-3-yl)-6-(2,5-dichlorothiazole-4-carboxamido)hept-2-enediamide] | 1 to 10 | 1 to 3 | 250 to 1500 |
| O=C(/C=C/CC[C@H](NC(=O)c1nc(Br)cs1)C(=O)Nc1cccn(CC(=O)NC23CC(C2)C3)c1=O)NCc1ccccc1 [III-155, (S,E)-N1-benzyl-N7-(1-(2-(bicyclo[1.1.1]pentan-1-ylamino)-2-oxoethyl)-2-oxo-1,2-dihydropyridin-3-yl)-6-(4-bromothiazole-2-carboxamido)hept-2-enediamide] | 1 to 10 | 1 to 3 | 25 to 250 |

Other lines, results leading:

| Papp [1] [×10⁻⁶ cm/s] | logD [2] | IC50 [3] [nM] | Structure (SMILES) |
| --- | --- | --- | --- |
| 1 to 10 | < 1 | 25 to 250 | CC(C)NC(=O)/C=C/CC[C@H](NC(=O)c1c[nH]c2ccccc12)C(=O)Nc1cccn(CC(=O)NC23CC(C2)C3)c1=O [III-140, (S,E)-N7-(1-(2-(bicyclo[1.1.1]pentan-1-ylamino)-2-oxoethyl)-2-oxo-1,2-dihydropyridin-3-yl)-6-(1H-indole-3-carboxamido)-N1-isopropylhept-2-enediamide] |
| 1 to 10 | < 1 | 250 to 1500 | Cc1cn2c(C(=O)N[C@@H](CC/C=C/C(=O)NC(C)C)C(=O)Nc3cccn(CC(=O)NC45CC(C4)C5)c3=O)csc2n1 [III-141, (S,E)-N7-(1-(2-(bicyclo[1.1.1]pentan-1-ylamino)-2-oxoethyl)-2-oxo-1,2-dihydropyridin-3-yl)-N1-isopropyl-6-(6-methylimidazo[2,1-b]thiazole-3-carboxamido)hept-2-enediamide] |
| 1 to 10 | 1 to 3 | 25 to 250 | CCCCCNC(=O)/C=C/CC[C@H](NC(=O)c1nc2ccccc2s1)C(=O)Nc1cccn(CC(=O)NC23CC(C2)C3)c1=O [III-142, (S,E)-6-(benzo[d]thiazole-2-carboxamido)-N7-(1-(2-(bicyclo[1.1.1]pentan-1-ylamino)-2-oxoethyl)-2-oxo-1,2-dihydropyridin-3-yl)-N1-pentylheptyl-2-enediamide] |
| 1 to 10 | 1 to 3 | 250 to 1500 | CCCCCNC(=O)/C=C/CC[C@H](NC(=O)c1cn2ccsc2n1)C(=O)Nc1cccn(CC(=O)NC23CC(C2)C3)c1=O [III-143, (S,E)-N7-(1-(2-(bicyclo[1.1.1]pentan-1-ylamino)-2-oxoethyl)-2-oxo-1,2-dihydropyridin-3-yl)-6-(imidazo[2,1-b]thiazole-6-carboxamido)-N1-pentylhept-2-enediamide] |
| < 1 | < 1 | 25 to 250 | O=C(/C=C/CC[C@H](NC(=O)c1cc2ccccc2nn1)C(=O)Nc1cccn(CC(=O)NC23CC(C2)C3)c1=O)NC1CC1 [III-145, (S,E)-N7-(1-(2-(bicyclo[1.1.1]pentan-1-ylamino)-2-oxoethyl)-2-oxo-1,2-dihydropyridin-3-yl)-6-(cinnoline-3-carboxamido)-N1-cyclopropylhept-2-enediamide] |
| < 1 | < 1 | 25 to 250 | C=CCNC(=O)/C=C/CC[C@H](NC(=O)c1ccc2cnccc2n1)C(=O)Nc1cccn(CC(=O)NC23CC(C2)C3)c1=O [III-150, (S,E)-N1-allyl-N7-(1-(2-(bicyclo[1.1.1]pentan-1-ylamino)-2-oxoethyl)-2-oxo-1,2-dihydropyridin-3-yl)-6-(1,6-naphthyridine-2-carboxamido)hept-2-enediamide] |
| < 1 | < 1 | 250 to 1500 | C=CCNC(=O)/C=C/CC[C@H](NC(=O)c1nccc2cnccc12)C(=O)Nc1cccn(CC(=O)NC23CC(C2)C3)c1=O [III-151, (S,E)-N1-allyl-N7-(1-(2-(bicyclo[1.1.1]pentan-1-ylamino)-2-oxoethyl)-2-oxo-1,2-dihydropyridin-3-yl)-6-(2,6-naphthyridine-1-carboxamido)hept-2-enediamide] |
| 1 to 10 | 1 to 3 | 25 to 250 | Cc1cc(C(=O)N[C@@H](CC/C=C/C(=O)Nc2ccccc2)C(=O)Nc2cccn(CC(=O)NC34CC(C3)C4)c2=O)c(C)o1 [III-153, (S,E)-N7-(1-(2-(bicyclo[1.1.1]pentan-1-ylamino)-2-oxoethyl)-2-oxo-1,2-dihydropyridin-3-yl)-6-(2,5-dimethylfuran-3-carboxamido)-N1-phenylhept-2-enediamide] |
| < 1 | 1 to 3 | 250 to 1500 | Cn1ccnc1C(=O)N[C@@H](CC/C=C/C(=O)c1ccccc1)C(=O)Nc1cccn(CC(=O)NC23CC(C2)C3)c1=O [III-157, (S,E)-N-(1-(1-(2-(bicyclo[1.1.1]pentan-1-ylamino)-2-oxoethyl)-2-oxo-1,2-dihydropyridin-3-ylamino)-1,7-dioxo-7-phenylhept-5-en-2-yl)-1-methyl-1H-imidazole-2-carboxamide] |
| < 1 | < 1 | 250 to 1500 | CC(C)OC(=O)/C=C/CC[C@H](NC(=O)c1cn[nH]n1)C(=O)Nc1cccn(CC(=O)NC23CCC(C2)C3)c1=O [III-158, (S,E)-isopropyl 7-(1-(2-(bicyclo[2.1.1]hexan-1-ylamino)-2-oxoethyl)-2-oxo-1,2-dihydropyridin-3-ylamino)-7-oxo-6-(2H-1,2,3-triazole-4-carboxamido)hept-2-enoate] |
